Inhibition data for three compounds are collected here from ChEMBL document CHEMBL3792292, “Development of a potent and selective FLT3 kinase inhibitor by systematic expansion of a non-selective fragment-screening hit” (Bioorg Med Chem Lett, 2016).

Experiment [1] addresses Protein-tyrosine kinase 2-beta (Homo sapiens) (UniProt Q14289). Briefly: Inhibition of full length human N-terminal GST-tagged PYK2 (1 to 967 residues) expressed in baculovirus expression system using fluorescence labelled Blk/Lyntide as substrate at 50 times IC50 by electrophoretic mobility shift assay relative to control. For orientation: A gel shift assay detects complexes by their altered migration in electrophoresis.

For experiment [2], the target named is Death-associated protein kinase 1 (Homo sapiens) (UniProt P53355). Briefly: Inhibition of human N-terminal GST-tagged DAPK1 catalytic domain (1 to 289 residues) expressed in baculovirus expression system using fluorescence labelled DAPK1tide as substrate at 50 times IC50 by electrophoretic mobility shift assay relative to control.
Experiment [3] deals with T1, Aurora kinase A (Homo sapiens) (UniProt O14965).
T1 sequence (whole entry): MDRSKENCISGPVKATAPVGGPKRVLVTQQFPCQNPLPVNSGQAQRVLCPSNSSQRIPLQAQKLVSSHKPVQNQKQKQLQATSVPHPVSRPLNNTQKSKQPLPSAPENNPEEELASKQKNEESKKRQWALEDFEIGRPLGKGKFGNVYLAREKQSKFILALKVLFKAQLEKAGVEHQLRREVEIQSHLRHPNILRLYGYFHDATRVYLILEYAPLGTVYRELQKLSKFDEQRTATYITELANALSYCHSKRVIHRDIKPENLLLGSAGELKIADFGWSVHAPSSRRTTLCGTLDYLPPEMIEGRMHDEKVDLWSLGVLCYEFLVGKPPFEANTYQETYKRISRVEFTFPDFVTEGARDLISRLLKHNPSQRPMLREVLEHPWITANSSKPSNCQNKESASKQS
Briefly: Inhibition of full length human N-terminal GST-tagged Aurora A (1 to 403 residues) expressed in baculovirus expression system using fluorescence labelled kemptide as substrate at 50 times IC50 by electrophoretic mobility shift assay relative to control.

In experiment [4] the target is T2, Tyrosine-protein kinase JAK3 (Homo sapiens) (UniProt P52333).
T2 sequence (whole entry): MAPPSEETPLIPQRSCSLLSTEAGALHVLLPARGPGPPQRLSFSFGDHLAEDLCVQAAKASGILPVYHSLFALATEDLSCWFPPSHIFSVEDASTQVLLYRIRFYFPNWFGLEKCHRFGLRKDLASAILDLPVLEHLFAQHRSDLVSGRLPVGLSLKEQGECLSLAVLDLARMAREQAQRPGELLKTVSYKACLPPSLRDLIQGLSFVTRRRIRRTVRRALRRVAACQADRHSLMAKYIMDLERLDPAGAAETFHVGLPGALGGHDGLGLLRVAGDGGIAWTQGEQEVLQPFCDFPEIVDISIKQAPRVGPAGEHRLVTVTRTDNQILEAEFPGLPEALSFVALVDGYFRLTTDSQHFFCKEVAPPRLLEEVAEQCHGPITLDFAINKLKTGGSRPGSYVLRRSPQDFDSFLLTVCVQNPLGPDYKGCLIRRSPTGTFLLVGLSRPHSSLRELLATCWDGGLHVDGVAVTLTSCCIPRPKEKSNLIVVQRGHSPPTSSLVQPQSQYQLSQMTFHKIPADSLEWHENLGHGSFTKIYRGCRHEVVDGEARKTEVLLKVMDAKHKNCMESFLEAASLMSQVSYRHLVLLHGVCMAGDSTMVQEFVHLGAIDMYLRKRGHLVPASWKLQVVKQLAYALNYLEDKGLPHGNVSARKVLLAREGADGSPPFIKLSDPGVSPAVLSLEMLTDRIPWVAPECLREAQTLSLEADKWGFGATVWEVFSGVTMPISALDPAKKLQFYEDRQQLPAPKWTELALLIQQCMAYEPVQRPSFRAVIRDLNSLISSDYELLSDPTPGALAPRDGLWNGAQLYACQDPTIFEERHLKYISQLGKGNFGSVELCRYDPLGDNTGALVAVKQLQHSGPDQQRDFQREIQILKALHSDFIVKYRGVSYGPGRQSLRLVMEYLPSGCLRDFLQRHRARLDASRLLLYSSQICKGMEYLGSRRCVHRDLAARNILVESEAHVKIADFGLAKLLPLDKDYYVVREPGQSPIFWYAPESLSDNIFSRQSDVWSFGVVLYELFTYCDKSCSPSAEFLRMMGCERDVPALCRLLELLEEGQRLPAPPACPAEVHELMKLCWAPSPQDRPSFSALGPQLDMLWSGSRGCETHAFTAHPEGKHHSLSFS
Briefly: Inhibition of human N-terminal His-tagged JAK3 catalytic domain (795 to 1124 residues) expressed in baculovirus expression system using fluorescence labelled srctide as substrate at 50 times IC50 by electrophoretic mobility shift assay relative to control.

The target in experiment [5] is Mitogen-activated protein kinase 1 (Homo sapiens) (UniProt P28482). Briefly: Inhibition of full length human N-terminal GST-tagged ERK2 (1 to 360 residues) expressed in Escherichia coli using fluorescence labelled modified Erktide as substrate at 50 times IC50 by electrophoretic mobility shift assay relative to control.
The target in experiment [6] is CDK2/Cyclin A2 (Homo sapiens) (UniProt P24941+P20248). Briefly: Inhibition of full length human N-terminal GST-tagged CDK2 (1 to 298 residues)/Cyclin A2 (1 to 432 residues) expressed in baculovirus expression system using fluorescence labelled modified histone H1 as substrate at 50 times IC50 by electrophoretic mobility shift assay relative to control.
The target in experiment [7] is Serine/threonine-protein kinase pim-1 (Homo sapiens) (UniProt P11309). Briefly: Inhibition of full length human N-terminal His-tagged PIM1 (1 to 313 residues) expressed in baculovirus expression system using fluorescence labelled S6K2 peptide substrate at 50 times IC50 by electrophoretic mobility shift assay relative to control.
The target in experiment [8] is T3, Interleukin-1 receptor-associated kinase 4 (Homo sapiens) (UniProt Q9NWZ3).
T3 sequence (whole entry): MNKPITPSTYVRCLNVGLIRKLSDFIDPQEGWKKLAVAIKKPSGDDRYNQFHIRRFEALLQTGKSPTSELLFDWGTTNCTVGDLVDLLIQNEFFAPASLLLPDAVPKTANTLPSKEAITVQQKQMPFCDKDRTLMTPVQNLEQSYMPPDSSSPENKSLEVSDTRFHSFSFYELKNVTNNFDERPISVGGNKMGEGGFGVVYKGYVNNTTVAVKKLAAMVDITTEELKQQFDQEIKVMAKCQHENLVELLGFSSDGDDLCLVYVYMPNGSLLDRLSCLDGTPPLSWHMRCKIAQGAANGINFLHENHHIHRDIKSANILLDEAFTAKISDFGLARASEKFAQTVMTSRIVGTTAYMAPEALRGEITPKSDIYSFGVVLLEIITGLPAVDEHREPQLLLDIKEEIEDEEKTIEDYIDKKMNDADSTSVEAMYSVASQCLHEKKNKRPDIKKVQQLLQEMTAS
Briefly: Inhibition of full length human N-terminal GST-tagged IRAK4 (1 to 460 residues) expressed in baculovirus expression system using fluorescence labelled IRAK1 peptide substrate at 50 times IC50 by electrophoretic mobility shift assay relative to control.

Experiment [9] concerns the target RAC-alpha serine/threonine-protein kinase (Homo sapiens) (UniProt P31749). Briefly: Inhibition of human N-terminal GST-tagged AKT1 catalytic domain (104 to 480 residues) expressed in baculovirus expression system using fluorescence labelled crosstide as substrate at 50 times IC50 by electrophoretic mobility shift assay relative to control.

In general, inhibition refers to the relative decrease from the control value, in per cent. With `O=C(Nc1ccccc1)c1n[nH]c2ccccc12`, the inhibition in experiment [1] came out at 49.5%; in experiment [2] it was 32.9%; in [3], 45.2%; in experiment [4] it was 51.9%; in experiment [5] it was 7%; in experiment [6], 86.3%. Besides, the inhibition was 3.1% in experiment [7], 19.7% in [8] and -2.4% in experiment [9].
For `O=C(Nc1ccc(C(=O)N2CCN(c3ccccc3)CC2)cc1)c1n[nH]c2ccccc12`, the inhibition in experiment [1] was 34.9%; in experiment [2] it was 13%; in experiment [3], 31.3%; in experiment [4] it was 26.4%; in [5], -0.8%; in experiment [6], 14.9%. Besides, the results for the inhibition in experiment [7], in [8] and in experiment [9] were 3%, 2.6% and -1.1%, respectively.
Take `O=C(Nc1ccc(CN2CCN(c3ccccc3)CC2)cc1)c1n[nH]c2ccccc12`: the inhibition in [1] was 14.2%; in experiment [2], 8.3%; in experiment [3] it was 6.1%; in experiment [4] it was 9%; in [5], -2.1%; in experiment [6], 4.5%. Moreover, the results for the inhibition in [7], in experiment [8] and in experiment [9] were 6%, -1.9% and -3.3%, respectively.
